Like-named read-outs stand apart in the source and are kept apart here.
Legend:
patients = details: prior art, cited from earlier work; for Clinical effects in patients (in words): mental diseases / Alzheimer's disease
acetylcholinesterase = details: cited from earlier work
in vivo = details: rat, po
[1] = prior art; cited from earlier work
[2] = cited from earlier work
[3] = target: T1, acetylcholinesterase from human red blood cells (Homo sapiens, UniProt P22303); assay: Inhibition of acetylcholinesterase from human erythrocyte (Ellman colorimetric method); type: biochemical
T1 construct: purchased Sigma Chemical; host or cells: human erythrocyte
T1 sequence (P22303 32-617 isoform P22303-2 limits assumed): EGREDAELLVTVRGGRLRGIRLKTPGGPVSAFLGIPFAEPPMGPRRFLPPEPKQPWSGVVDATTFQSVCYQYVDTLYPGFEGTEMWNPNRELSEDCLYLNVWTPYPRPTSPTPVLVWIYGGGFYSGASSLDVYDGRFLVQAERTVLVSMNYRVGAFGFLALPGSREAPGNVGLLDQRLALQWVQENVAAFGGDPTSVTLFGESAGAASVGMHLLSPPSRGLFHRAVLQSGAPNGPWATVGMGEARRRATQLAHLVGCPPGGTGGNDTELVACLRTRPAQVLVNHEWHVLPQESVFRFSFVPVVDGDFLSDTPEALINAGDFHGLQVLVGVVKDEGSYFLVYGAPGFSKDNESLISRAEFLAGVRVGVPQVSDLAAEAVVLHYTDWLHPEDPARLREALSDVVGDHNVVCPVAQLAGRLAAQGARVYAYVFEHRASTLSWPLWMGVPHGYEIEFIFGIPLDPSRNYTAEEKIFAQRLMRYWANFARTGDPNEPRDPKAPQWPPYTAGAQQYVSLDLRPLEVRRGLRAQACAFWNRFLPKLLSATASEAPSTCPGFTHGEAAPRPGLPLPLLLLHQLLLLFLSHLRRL

[4] = target: T2, acetylcholinesterase from electric eel (Electrophorus electricus, UniProt O42275); assay: biochemical
T2 construct: purchased Sigma Chemical; host or cells: electric eel
T2 sequence (O42275 24-633): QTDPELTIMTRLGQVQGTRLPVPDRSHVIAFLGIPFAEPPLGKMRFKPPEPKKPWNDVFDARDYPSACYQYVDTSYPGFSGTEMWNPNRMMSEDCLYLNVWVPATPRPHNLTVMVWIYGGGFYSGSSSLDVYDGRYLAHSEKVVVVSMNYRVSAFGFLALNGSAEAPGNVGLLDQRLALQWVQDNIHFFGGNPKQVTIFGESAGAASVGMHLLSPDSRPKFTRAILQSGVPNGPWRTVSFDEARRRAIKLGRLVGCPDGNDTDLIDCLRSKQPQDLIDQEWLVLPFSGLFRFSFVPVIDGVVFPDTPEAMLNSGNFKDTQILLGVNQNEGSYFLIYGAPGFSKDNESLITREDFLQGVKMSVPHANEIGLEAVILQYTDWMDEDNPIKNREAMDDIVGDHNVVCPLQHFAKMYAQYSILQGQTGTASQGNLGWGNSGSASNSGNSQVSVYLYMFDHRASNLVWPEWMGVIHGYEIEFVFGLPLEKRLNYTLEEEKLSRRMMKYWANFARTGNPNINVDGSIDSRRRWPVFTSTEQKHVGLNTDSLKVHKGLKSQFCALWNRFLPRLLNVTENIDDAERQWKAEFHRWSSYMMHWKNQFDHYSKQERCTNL

[5] = target: T3, butyrylcholinesterase from human serum (Homo sapiens, UniProt P06276); assay: Inhibition of butyrylcholinesterase from human serum (Ellman colorimetric method); type: biochemical
T3 construct: purchased Sigma Chemical; host or cells: human serum
T3 sequence (P06276 29-602): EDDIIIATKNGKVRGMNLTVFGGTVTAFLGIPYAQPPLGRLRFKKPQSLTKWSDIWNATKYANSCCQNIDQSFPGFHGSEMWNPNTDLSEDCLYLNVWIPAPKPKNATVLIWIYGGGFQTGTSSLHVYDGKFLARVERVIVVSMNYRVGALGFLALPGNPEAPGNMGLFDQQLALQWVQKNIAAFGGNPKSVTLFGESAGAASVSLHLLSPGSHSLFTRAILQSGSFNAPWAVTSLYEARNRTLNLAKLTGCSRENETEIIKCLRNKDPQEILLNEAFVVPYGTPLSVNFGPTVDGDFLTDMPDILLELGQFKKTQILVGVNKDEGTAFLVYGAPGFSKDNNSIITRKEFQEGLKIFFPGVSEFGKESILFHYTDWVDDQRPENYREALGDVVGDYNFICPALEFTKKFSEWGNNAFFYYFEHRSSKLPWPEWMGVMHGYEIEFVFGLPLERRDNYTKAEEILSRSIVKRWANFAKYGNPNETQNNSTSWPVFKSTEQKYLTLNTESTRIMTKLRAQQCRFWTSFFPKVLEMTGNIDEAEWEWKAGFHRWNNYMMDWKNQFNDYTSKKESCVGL

[6] = target: T4, acetylcholinesterase from homogenate of in toto rat brain (Rattus norvegicus, UniProt P37136); assay: Inhibition of acetylcholinesterase from rat brain homogenate; type: biochemical; details: contact time 10'; read-out: Cholinesterase Inhibition IC50, AChE rat brain
T4 construct: acetylcholinesterase from homogenate of in toto rat brain; from tissue; host or cells: rat whole brain homogenate
T4 sequence (P37136 32-614): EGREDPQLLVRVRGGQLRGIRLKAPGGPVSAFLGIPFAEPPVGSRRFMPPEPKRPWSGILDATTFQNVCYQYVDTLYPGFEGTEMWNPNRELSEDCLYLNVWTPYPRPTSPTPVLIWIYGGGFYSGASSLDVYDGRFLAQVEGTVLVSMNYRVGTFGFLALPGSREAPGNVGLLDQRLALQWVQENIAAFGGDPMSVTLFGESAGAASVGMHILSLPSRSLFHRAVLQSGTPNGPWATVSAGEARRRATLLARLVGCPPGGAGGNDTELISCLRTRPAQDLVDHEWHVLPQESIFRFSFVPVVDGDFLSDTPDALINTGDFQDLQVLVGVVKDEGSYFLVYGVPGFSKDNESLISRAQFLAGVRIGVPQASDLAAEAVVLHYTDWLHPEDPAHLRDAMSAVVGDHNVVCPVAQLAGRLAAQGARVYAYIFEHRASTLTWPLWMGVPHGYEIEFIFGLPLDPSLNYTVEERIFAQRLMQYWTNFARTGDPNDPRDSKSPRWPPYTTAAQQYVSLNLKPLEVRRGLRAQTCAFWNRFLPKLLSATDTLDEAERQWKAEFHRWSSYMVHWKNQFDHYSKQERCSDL
Excerpt: The compounds prepared as per the Examples reported above and several other compounds under the present invention (Table 1) were pharmacologically tested with a view to determining their inhibitory effect on acetylcholinesterase and butyrylcholinesterase activity. The used method had been developed by Ellman et al. (Ellman, G. L., Courtney, K. D., Andres, V., Featherstone, R. M.: "A New and Rapid Colorimetric Determination of Acetylcholinesterase Activity", Biochem. Pharm. 7, 88, 1961).
AChE rat brain: acetylcholinesterase from homogenate of in toto rat brain
t: contact time (minutes)
IC50 M: median inhibitory molar concentration

[7] = Cholinesterase Inhibition IC50, AChE hRBC, contact time 30'
[8] = Cholinesterase Inhibition IC50, AChE hRBC, contact time 60'
[9] = Cholinesterase Inhibition IC50, AChE E.eel, contact time 10'
[10] = contact time 10', read-out: Cholinesterase Inhibition IC50, AChE hRBC

| Structure (SMILES) | Acetylcholinesterase inhibition, prior art (in words) (acetylcholinesterase) | IC50 [5] [nM] | IC50 [6] [nM] | IC50 [3, 7] [nM] | IC50 [4, 9] [nM] | IC50 [3, 10] [nM] | also measured |
| --- | --- | --- | --- | --- | --- | --- | --- |
| CNC(=O)Oc1ccc2c(c1)[C@]1(C)CCN(C)[C@@H]1N2C [ESERINE, physostigmine] | potent natural inhibitor of acetylcholinesterase | – | – | – | – | – | Clinical effects in patients (in words) (patients): beneficial effects on patients affected by mental diseases; LD50 (in vivo): 4.5 mg/kg; Pharmacokinetic properties (in words) [1]: unfavourable pharmacokinetic properties |
| CCCCCCCNC(=O)Oc1ccc2c(c1)[C@]1(C)CCN(C)[C@@H]1N2C [MF 201, heptylcarbamic ester of eseroline, reference compound] | less potent acetylcholinesterase inhibitor than physostigmine | 40 | – | – | – | – | Side effects, prior art (in words) [2]: reduced side effects; Neutropenia in patients (in words) (patients; clinical pilot test, Alzheimer's disease): neutropenia phenomena in some, though very few, patients; Clinical effects in patients (in words) (patients): good results in a clinical pilot test on patients affected by Alzheimer's disease; IC50 ([3]; read-out: Cholinesterase Inhibition IC50, AChE hRBC): 290 nM; IC50 ([4]; contact time 10', read-out: Cholinesterase Inhibition IC50, AChE E.eel): 550 nM; IC50 ([4]; contact time 30', read-out: Cholinesterase Inhibition IC50, AChE E.eel): 410 nM; IC50 ([4]; contact time 60', read-out: Cholinesterase Inhibition IC50, AChE E.eel): 440 nM; Pharmacokinetic properties (in words) [1]: better pharmacokinetic properties |
| CN1CC[C@@]2(C)c3cc(OC(=O)N4CCOCC4)ccc3N(C)[C@@H]12 [MF 215, reference compound] | low acetylcholinesterase activity depression | – | – | – | – | – | Activity compared with the compounds of this invention (in words) ([3]; compared with the compounds of this invention): much lower activity; IC50 ([3]; read-out: Cholinesterase Inhibition IC50, AChE hRBC, contact time 10'): 19000 nM; IC50 ([3]; read-out: Cholinesterase Inhibition IC50, AChE hRBC, contact time 30'): 12000 nM; IC50 ([3]; read-out: Cholinesterase Inhibition IC50, AChE hRBC, contact time 60'): 16000 nM; IC50 ([5]; read-out: Cholinesterase Inhibition IC50, BuChE hserum, contact time 10'): 870000 nM |
| CN1CC[C@@]2(C)c3cc(OC(=O)NCCCCCCCCN4CCOCC4)ccc3N(C)[C@@H]12 [MF 217, N-morpholinyloctylcarbamoyleseroline] | – | 170 | 880 | 76 | 330 | – | IC50 ([3]; Cholinesterase Inhibition IC50, AChE hRBC, contact time 10'): 100 nM; IC50 [3, 8]: 63 nM; Activity against human red blood cells acetylcholinesterase (in words) ([3]; Table 2 results): Particularly active; LD50 (in vivo): 23 mg/kg |
| CN1CC[C@@]2(C)c3cc(OC(=O)NCCCCCCCN4CCOCC4)ccc3N(C)[C@@H]12 [MF 224, N-morpholinylheptylcarbamoyleseroline] | – | 300 | 4100 | 170 | 1600 | 380 | – |
| CN1CC[C@@]2(C)c3cc(OC(=O)NCCCCCN4CCOCC4)ccc3N(C)[C@@H]12 [MF 225, N-morpholinylpentylcarbamoyleseroline] | – | – | 500000 | 2200 | 330000 | 7600 | – |
| CN1CC[C@@]2(C)c3cc(OC(=O)NCCCCCCN4CCOCC4)ccc3N(C)[C@@H]12 [MF 227, N-morpholinylhexylcarbamoyleseroline] | – | 100 | 8200 | 380 | 12000 | 930 | – |
| CN1CC[C@@]2(C)c3cc(OC(=O)NCCCCCCCCCCCCN4CCOCC4)ccc3N(C)[C@@H]12 [MF 228, N-morpholinyldodecylcarbamoyleseroline] | – | 100 | 380 | 60 | 70 | 70 | IC50 [3, 8]: 30 nM |

— patent publication US5424451A, “Process for preparing aminoalkylcarbamic esters of eseroline” (priority 1992, dated 1995)
